Measured values published in patent US20190030170A1, “CANNABINOID FORMULATIONS WITH IMPROVED SOLUBILITY” (Vireo Health LLC, priority 2016, published 2019).
Values after ≈ are worked out from the molar mass of the structure shown.

Experiment: solubility of CBD in water and other aqueous solvents with Captisol (SAE-CD) and/or added polymers, surfactants, pH
Type: physicochemical
From the text: In some embodiments the addition of water soluble polymers and/or surfactants increases the solubility of the CBD/Captisol mixture. Therefore, in some embodiments the formulations may include the addition of these or other ingredients as solubility enhancers.

Compound `C=C(C)[C@@H]1CCC(C)=C[C@H]1c1c(O)cc(CCCCC)cc1O` [CBD, cannabidiol] has a solubility (aqueous solvent with 0.5% Poloxamer 188, without Captisol, aqueous with cosolvent or surfactant or cyclodextrin, Captisol 0%, 0.5% Poloxamer 188) of 133 µg/mL (≈ 0.423 mM), a solubility (aqueous solvent, aqueous with cosolvent or surfactant or cyclodextrin, Captisol 0%, 1% CMC) of 593 µg/mL (≈ 1.89 mM) and a solubility (aqueous solvent, aqueous with cosolvent or surfactant or cyclodextrin, Captisol 0%, 1% CrEL) of 8960 µg/mL (≈ 28.5 mM). The solubility (aqueous solvent, aqueous with cosolvent or surfactant or cyclodextrin, Captisol 0%, 1% HPMC) was 590 µg/mL (≈ 1.88 mM), the solubility (aqueous solvent, aqueous with cosolvent or surfactant or cyclodextrin, Captisol 0%, 1% PVP) was 602 µg/mL (≈ 1.92 mM) and the solubility (aqueous solvent, aqueous with cosolvent or surfactant or cyclodextrin, Captisol 0%, 1% Tween 80) was 4200 µg/mL (≈ 13.3 mM). For the same compound, the solubility (aqueous solvent, aqueous with cosolvent or surfactant or cyclodextrin, Captisol 0%, 5% CrEL) was 21900 µg/mL (≈ 69.7 mM), the solubility (aqueous solvent, aqueous with cosolvent or surfactant or cyclodextrin, Captisol 0%, 10% CrEL) was 47800 µg/mL (≈ 152 mM) and the solubility (aqueous solvent, aqueous with cosolvent or surfactant or cyclodextrin, Captisol 20%, 0.5% CMC) was 14.5 µg/mL (≈ 0.0461 mM). The solubility (aqueous solvent, aqueous with cosolvent or surfactant or cyclodextrin, Captisol 20%, 0.5% HPMC) was 1320 µg/mL (≈ 4.2 mM), the solubility (aqueous solvent, aqueous with cosolvent or surfactant or cyclodextrin, Captisol 20%, 0.5% PVP) was 1180 µg/mL (≈ 3.74 mM) and the solubility (aqueous solvent, aqueous with cosolvent or surfactant or cyclodextrin, Captisol 20%, 0.5% Poloxamer 188) was 1410 µg/mL (≈ 4.49 mM). For the same compound, the solubility (aqueous solvent, aqueous with cosolvent or surfactant or cyclodextrin, Captisol 20%, 1% CMC) was 1710 µg/mL (≈ 5.44 mM), the solubility (aqueous solvent, aqueous with cosolvent or surfactant or cyclodextrin, Captisol 20%, 1% CrEL) was 4280 µg/mL (≈ 13.6 mM) and the solubility (aqueous solvent, aqueous with cosolvent or surfactant or cyclodextrin, Captisol 20%, 1% HPMC) was 1550 µg/mL (≈ 4.94 mM). It also gave a solubility (aqueous solvent, aqueous with cosolvent or surfactant or cyclodextrin, Captisol 20%, 1% PVP) of 1520 µg/mL (≈ 4.82 mM), a solubility (aqueous solvent, aqueous with cosolvent or surfactant or cyclodextrin, Captisol 20%, 1% Tween 80) of 2010 µg/mL (≈ 6.4 mM) and a solubility (aqueous solvent, aqueous with cosolvent or surfactant or cyclodextrin, Captisol 20%, 2% CMC) of 365 µg/mL (≈ 1.16 mM). The solubility (aqueous solvent, aqueous with cosolvent or surfactant or cyclodextrin, Captisol 20%, 2% PVP) was 840 µg/mL (≈ 2.67 mM), the solubility (aqueous solvent, aqueous with cosolvent or surfactant or cyclodextrin, Captisol 20%, 2% Tween 80) was 720 µg/mL (≈ 2.29 mM) and the solubility (aqueous solvent, aqueous with cosolvent or surfactant or cyclodextrin, Captisol 20%, 5% CrEL) was 13500 µg/mL (≈ 43 mM). For the same compound, the solubility (aqueous solvent, aqueous with cosolvent or surfactant or cyclodextrin, Captisol 20%, 5% CrEL and EtOH) was 21500 µg/mL (≈ 68.4 mM), the solubility (aqueous solvent, aqueous with cosolvent or surfactant or cyclodextrin, Captisol 20%, 10% CrEL) was 46700 µg/mL (≈ 149 mM) and the solubility (aqueous solvent, aqueous with cosolvent or surfactant or cyclodextrin, Captisol 20%, EtOH (line below the 10% heading)) was 920 µg/mL (≈ 2.93 mM). It also gave a solubility (aqueous solvent, aqueous with cosolvent or surfactant or cyclodextrin, Captisol 20%, additive None) of 850 µg/mL (≈ 2.7 mM), a solubility (aqueous solvent, aqueous with cosolvent or surfactant or cyclodextrin, Captisol 40%, 0.5% CMC) of 3270 µg/mL (≈ 10.4 mM) and a solubility (aqueous solvent, aqueous with cosolvent or surfactant or cyclodextrin, Captisol 40%, 0.5% HPMC) of 2680 µg/mL (≈ 8.52 mM). The solubility (aqueous solvent, aqueous with cosolvent or surfactant or cyclodextrin, Captisol 40%, 0.5% PVP) was 2950 µg/mL (≈ 9.37 mM), the solubility (aqueous solvent, aqueous with cosolvent or surfactant or cyclodextrin, Captisol 40%, 0.5% Tween 80) was 2020 µg/mL (≈ 6.42 mM) and the solubility (aqueous solvent, aqueous with cosolvent or surfactant or cyclodextrin, Captisol 40%, 1% CMC) was 2640 µg/mL (≈ 8.38 mM). For the same compound, the solubility (aqueous solvent, aqueous with cosolvent or surfactant or cyclodextrin, Captisol 40%, 1% HPMC) was 3450 µg/mL (≈ 11 mM), the solubility (aqueous solvent, aqueous with cosolvent or surfactant or cyclodextrin, Captisol 40%, 1% PVP) was 3280 µg/mL (≈ 10.4 mM) and the solubility (aqueous solvent, aqueous with cosolvent or surfactant or cyclodextrin, Captisol 40%, 1% Tween 80) was 2650 µg/mL (≈ 8.43 mM). For the same compound, the solubility (aqueous solvent, aqueous with cosolvent or surfactant or cyclodextrin, Captisol 40%, additive None) was 2800 µg/mL (≈ 8.9 mM), the solubility (aqueous solvent, aqueous with cosolvent or surfactant or cyclodextrin, Captisol 0%, 5% CrEL and EtOH) was 36200 µg/mL (≈ 115 mM) and the solubility (aqueous solvent, pH 2, aqueous with cosolvent or surfactant or cyclodextrin, Captisol 20%, pH ~2) was 2480 µg/mL (≈ 7.89 mM). The solubility (aqueous solvent, pH 4, aqueous with cosolvent or surfactant or cyclodextrin, Captisol 20%, pH 4) was 650 µg/mL (≈ 2.07 mM), the solubility (aqueous solvent, pH 7.4, aqueous with cosolvent or surfactant or cyclodextrin, Captisol 20%, PBS (pH = 7.4)) was 720 µg/mL (≈ 2.29 mM) and the solubility (aqueous solvent, pH 7.4, aqueous with cosolvent or surfactant or cyclodextrin, Captisol 40%, PBS (pH = 7.4)) was 2300 µg/mL (≈ 7.31 mM). The solubility (aqueous solvent, pH 9, aqueous with cosolvent or surfactant or cyclodextrin, Captisol 20%, pH 9) was 850 µg/mL (≈ 2.7 mM), the solubility (aqueous solvent, water, Captisol 0%, additive None) was 0.26 µg/mL (≈ 0.000827 mM) and the “effect of complexation with Captisol on solubility of CBD in water and other aqueous solvents” value (complexation with an SAE-CD (Captisol)) was “significantly increased”.
